# Results as given in ChEMBL document CHEMBL1151677, “Bicinchoninic acid protein assay in the determination of adriamycin cytotoxicity modulated by the MDR glycoprotein” (1996).
# Calls of active or inactive are those of the source. No cut-off for these calls is given here.
# How the values were obtained:
# [1] = Displacement of N-(p-azido-[3-125I]salicyl)-N'-beta-aminoethylvindesine from P-glycoprotein at 12.4 uM
# [2] = Cytotoxicity against human MCF7/ADR cells assessed as ratio of drug concentration to 2 x drug ED50 at 0.15 uM after 6 days by BCA assay; format: functional, NCI/ADR-RES
# [3] = Cytotoxicity against human MCF7/ADR cells assessed as ratio of drug concentration to 2 x drug ED50 at 0.30 uM after 6 days by BCA assay; format: functional, NCI/ADR-RES
# [4] = Cytotoxicity against human MCF7/ADR cells assessed as ratio of drug concentration to 2 x drug ED50 at 0.62 uM after 6 days by BCA assay; format: functional, NCI/ADR-RES
# [5] = Cytotoxicity against human MCF7/ADR cells assessed as ratio of drug concentration to 2 x drug ED50 at 1.23 uM after 6 days by BCA assay; format: functional, NCI/ADR-RES
# [6] = Cytotoxicity against human MCF7/ADR cells assessed as ratio of drug concentration to 2 x drug ED50 at 2.46 uM after 6 days by BCA assay; format: functional, NCI/ADR-RES
# MCF = assay: Reversal of P-gp-mediated multidrug resistance in human MCF cells assessed as enhancement in cytotoxicity of adriamycin; format: cell-based
# MCF/ADR [7] = assay: Reversal of P-gp-mediated multidrug resistance in human MCF/ADR cells assessed as enhancement in cytotoxicity of adriamycin; format: cell-based
# [8] = Cytotoxicity against human MCF7/ADR cells after 6 days by coulter counted assay; format: functional; details: NCI/ADR-RES, 144 h, read-out: ED50 (the source's name)
# [9] = Cytotoxicity against human MCF7/ADR cells after 6 days by BCA assay; format: functional; details: NCI/ADR-RES, 144 h, read-out: ED50 (the source's name)
# MCF7 [10] = assay: Cytotoxicity against human MCF7 cells after 6 days by coulter counted assay; format: functional; details: MCF7, 144 h, read-out: ED50 (the source's name)
# MCF7 [11] = assay: Cytotoxicity against human MCF7 cells after 6 days by BCA assay; format: functional; details: MCF7, 144 h, read-out: ED50 (the source's name)
# MCF/ADR [12] = assay: Reversal of P-gp-mediated multidrug resistance in human MCF/ADR cells assessed as ratio of adriamycin ED50 without drug to adriamycin ED50 with drug at 0.28 uM after 6 days by BCA assay; format: cell-based
# MCF/ADR [13] = assay: Reversal of P-gp-mediated multidrug resistance in human MCF/ADR cells assessed as ratio of adriamycin ED50 without drug to adriamycin ED50 with drug at 0.53 uM after 6 days by BCA assay; format: cell-based
# MCF/ADR [14] = assay: Reversal of P-gp-mediated multidrug resistance in human MCF/ADR cells assessed as ratio of adriamycin ED50 without drug to adriamycin ED50 with drug at 1.07 uM after 6 days by BCA assay; format: cell-based
# [15] = Cytotoxicity against human MCF7/ADR cells assessed as ratio of drug concentration to 2 x drug ED50 at 0.28 uM after 6 days by BCA assay; format: functional, NCI/ADR-RES
# [16] = Cytotoxicity against human MCF7/ADR cells assessed as ratio of drug concentration to 2 x drug ED50 at 0.53 uM after 6 days by BCA assay; format: functional, NCI/ADR-RES
# [17] = Cytotoxicity against human MCF7/ADR cells assessed as ratio of drug concentration to 2 x drug ED50 at 1.07 uM after 6 days by BCA assay; format: functional, NCI/ADR-RES
# [18] = Cytotoxicity against human MCF7/ADR cells assessed as ratio of drug concentration to 2 x drug ED50 at 0.82 uM after 6 days by BCA assay; format: functional, NCI/ADR-RES
# [19] = Cytotoxicity against human MCF7/ADR cells assessed as ratio of drug concentration to 2 x drug ED50 at 1.64 uM after 6 days by BCA assay; format: functional, NCI/ADR-RES
# [20] = Cytotoxicity against human MCF7/ADR cells assessed as ratio of drug concentration to 2 x drug ED50 at 3.29 uM after 6 days by BCA assay; format: functional, NCI/ADR-RES
smiles,measurement,setting,value
COC(=O)[C@H]1[C@H]2C[C@@H]3c4[nH]c5cc(OC)ccc5c4CCN3C[C@H]2C[C@@H](OC(=O)c2cc(OC)c(OC)c(OC)c2)[C@@H]1OC [RESERPINE],Activity,[1],79.2%
same,Ratio,[2],0.05
same,Ratio,[3],0.009
same,Ratio,[4],0.02
same,Ratio,[5],0.04
same,Ratio,[6],0.08
C=C[C@H]1C[N+]2(Cc3ccccc3)CC[C@H]1C[C@H]2[C@H](O)c1ccnc2ccc(OC)cc12,Activity,MCF,inactive
same,Activity,MCF/ADR [7],inactive
COc1cccc2c1C(=O)c1c(O)c3c(c(O)c1C2=O)C[C@@](O)(C(=O)CO)C[C@@H]3O[C@H]1C[C@H](N)[C@H](O)[C@H](C)O1 [DOXORUBICIN],EC50,[8],2.7 µg/mL
same,EC50,[9],0.47 µg/mL
same,Activity,MCF,Active
same,EC50,MCF7 [10],0.0021 µg/mL
same,EC50,MCF7 [11],0.0018 µg/mL
CC[C@H]1CN2CC[C@H]1C[C@H]2[C@@H](Oc1cc(C)c2ccccc2n1)c1ccnc2ccc(OC)cc12,Ratio ED50,MCF/ADR [12],3
same,Ratio ED50,MCF/ADR [13],6
same,Ratio ED50,MCF/ADR [14],18
same,Ratio,[15],0.03
same,Ratio,[16],0.06
same,Ratio,[17],0.11
COc1ccc(CCN(C)CCCC(C#N)(c2ccc(OC)c(OC)c2)C(C)C)cc1OC (stereo not drawn),Activity,MCF,inactive
COC(=O)[C@H]1[C@H]2C[C@H]3c4[nH]c5cc(OC)ccc5c4CCN3C[C@H]2C[C@@H](OC(=O)c2cc(OC)c(OC)c(OC)c2)[C@@H]1OC [ISORESERPINE],Ratio,[18],0.04
same,Ratio,[19],0.09
same,Ratio,[20],0.17
